From article PMC5349910, “Discovery of BPR1K871, a quinazoline based, multi-kinase inhibitor for the treatment of AML and solid tumors: Rational design, synthesis, in vitro and in vivo evaluation” (Oncotarget, 2016)
≈ marks a conversion by molar mass, not a printed value. Where “and” joins values, the source holds several entries; their conditions need not be identical. Identical values can stand only once. Like-named read-outs stand apart in the source and are kept apart here.

How the values were obtained:
[1] = system: HCC827 cells; assay: Anti-proliferative activity, HCC827; format: cell-based; conditions: Homo sapiens, HCC827; NSCLC-EGFR L858R; supplement values ± SEM; read-out: HCC827 EC50
[2] = system: MOLM-13 cells; assay: MTS cell viability assay, MOLM-13; format: cell-based, human; conditions: MTS, 72 h, AML-FLT3-ITD (heterozygous), supplement values ± SEM, read-out: MOLM-13 EC50
Method: (§1) The MTS cell viability assay was conducted as previously described. The MOLM-13 human leukemia cell line was obtained from the German Resource Centre for Biological Material (DSMZ, Braunschweig, Germany); the MV4-11 cell line was purchased from the American Type Culture Collection (ATCC, Manassas, VA, USA). […] To determine cell viability after drug treatment, assay for MOLM-13 and MV4-11 was performed by seeding 10000 cells per well in a 96-well culture plate. […] After 16 h, cells were then treated with vehicle or various concentrations of compound in medium for 72 h. Viable cells were quantified using the MTS method (Promega, Madison, WI, USA) according to the manufacturer's recommended protocol. Results were determined by measuring the absorbance at 490 nm using a plate reader (Victor2; PerkinElmer, Shelton, CT, USA).

[3] = target: T1, FLT3 (Homo sapiens, UniProt P36888); assay: FLT3 kinase inhibition assay (Kinase-Glo); format: biochemical; conditions: for IC50: mean of at least two independent experiments, within ±15%; for selectivity for FLT3 over AURKA: from enzyme IC50
T1 construct: FLT3 kinase catalytic domain (residues Tyr567-Ser993); made in house; host or cells: Sf9 insect cells (baculovirus, pBac-PAK8-GST-FLT3-KD)
T1 sequence (P36888 567-993): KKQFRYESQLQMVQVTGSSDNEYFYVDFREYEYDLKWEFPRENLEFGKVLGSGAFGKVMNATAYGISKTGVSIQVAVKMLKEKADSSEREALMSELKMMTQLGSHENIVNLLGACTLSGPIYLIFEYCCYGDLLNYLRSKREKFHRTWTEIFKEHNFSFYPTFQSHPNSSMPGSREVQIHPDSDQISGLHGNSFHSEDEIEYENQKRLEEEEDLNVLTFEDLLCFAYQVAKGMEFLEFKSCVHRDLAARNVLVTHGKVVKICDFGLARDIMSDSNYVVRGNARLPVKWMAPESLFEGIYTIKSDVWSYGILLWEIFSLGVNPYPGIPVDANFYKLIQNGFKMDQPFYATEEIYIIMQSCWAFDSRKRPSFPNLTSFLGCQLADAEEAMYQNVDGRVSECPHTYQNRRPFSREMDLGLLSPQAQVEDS
Method: The FLT3 assay was conducted as previously described. Briefly, GST-FLT3-KD^WT containing the FLT3 kinase catalytic domain (residues Tyr567-Ser993) was expressed in Sf9 insect cells transfected with the baculovirus containing pBac-PAK8-GST-FLT3-KD plasmid.
(§2) Following incubation, 50 μL Kinase-Glo Plus Reagent (Promega, Madison, WI, USA) was added, and the mixture was incubated at 25°C for 20 min. A 70 μL aliquot of each reaction mixture was transferred to a black microliter plate, and luminescence was measured on a Wallac Vector 1420 multilabel counter (PerkinElmer, Shelton, CT, USA).

[4] = system: MV4-11 cells; assay: MTS cell viability assay, MV4-11; format: cell-based, human; conditions: MTS, 72 h, AML-FLT3-ITD (homozygous), supplement values ± SEM, read-out: MV4-11 EC50
Method: as §1

[5] = target: AURKB (Homo sapiens, UniProt Q96GD4); assay: AURKB inhibition assay (Kinase-Glo); format: biochemical; parameters: full length His-tagged Aurora-B (residues M1∼A344); His; purchased Invitrogen PV6130; conditions: 500 nM; duplicate determination
AURKB, sequence (Q96GD4 whole entry): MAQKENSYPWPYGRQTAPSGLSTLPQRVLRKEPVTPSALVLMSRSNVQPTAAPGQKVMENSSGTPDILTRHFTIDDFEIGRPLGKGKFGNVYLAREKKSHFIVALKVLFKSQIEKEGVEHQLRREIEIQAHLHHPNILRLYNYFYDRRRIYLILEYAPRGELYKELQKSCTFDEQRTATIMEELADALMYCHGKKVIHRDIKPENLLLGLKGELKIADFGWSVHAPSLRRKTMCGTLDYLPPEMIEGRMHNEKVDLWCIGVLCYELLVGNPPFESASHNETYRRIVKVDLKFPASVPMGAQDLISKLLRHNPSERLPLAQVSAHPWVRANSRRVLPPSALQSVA
Method: AURKB assay was conducted as previously described. Briefly, the recombinant full length His-tagged Aurora-B (residues M1∼A344) was purchased from Invitrogen (Catalog number: PV6130). The kinase assay was carried out in 96-well plates with the tested compound in reaction solution (50 mM Tris-HCl pH 7.4, 10 mM NaCl, 10 mM MgCl2, 0.01% BSA, 5 mM ATP, 1 mM DTT and 15 mM tetra(LRRASLG) peptide, and 40 ng recombinant Aurora-B) at 30°C for 180 min.
as §2

[6] = Aqueous solubility; format: physicochemical; conditions: in water
[7] = target: T2, AURKA (Homo sapiens, UniProt O14965); assay: AURKA inhibition assay (Kinase-Glo); format: biochemical; conditions: for IC50: mean of at least two independent experiments, within ±15%; for selectivity for AURKA over FLT3: from enzyme IC50
T2 construct: recombinant GST-AURKA (residues Ser123-Ser401) containing the kinase domain; GST (N); made in house; host or cells: Sf9 insect cells
T2 sequence (O14965 123-401): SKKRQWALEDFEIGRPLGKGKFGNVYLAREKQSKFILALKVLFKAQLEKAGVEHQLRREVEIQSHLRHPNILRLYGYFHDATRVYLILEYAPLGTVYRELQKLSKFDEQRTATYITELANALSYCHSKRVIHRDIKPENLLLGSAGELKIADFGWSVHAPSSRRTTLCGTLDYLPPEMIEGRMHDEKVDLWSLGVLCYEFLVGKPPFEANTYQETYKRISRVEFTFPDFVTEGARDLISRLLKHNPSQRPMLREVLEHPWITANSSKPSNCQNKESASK
Method: AURKA assay was conducted as previously described. Briefly, the recombinant GST-AURKA (residues Ser123-Ser401) containing the kinase domain was expressed in Sf9 insect cells.
Following incubation, 50 μL Kinase-Glo Plus Reagent (Promega, Madison, WI, USA) was added, and the mixture was incubated at 25°C for 20 min.

[8] = system: Detroit 551 (human normal skin fibroblast cells); assay: MTS cell viability assay, Detroit-551; format: cell-based; conditions: 72 h
Method: The MTS cell viability assay was conducted as previously described. The MOLM-13 human leukemia cell line was obtained from the German Resource Centre for Biological Material (DSMZ, Braunschweig, Germany); the MV4-11 cell line was purchased from the American Type Culture Collection (ATCC, Manassas, VA, USA). Both the leukemia cell lines were maintained in RPMI 1640 medium supplemented with 10% fetal bovine serum (FBS), 10 UmL^-1 penicillin, and […] streptomycin at 37°C and 5% CO2. The Detroit-551, COLO205, and Mia-PaCa2 cell lines were purchased from the American Type Culture Collection (ATCC, Manassas, VA, USA) and cultured according to instructions of ATCC. To determine cell viability after drug treatment, assay for MOLM-13 and MV4-11 was performed by seeding 10000 cells per well in a 96-well culture plate. Detroit-551, COLO205, and Mia-PaCa2 were seeded at density of 2500, 4000, and 3750 cells per well, respectively. After 16 h, cells were then treated with vehicle or various concentrations of compound in medium for 72 h. Viable cells were quantified using the MTS method (Promega, Madison, WI, USA) according to the manufacturer's recommended protocol. Results were determined by measuring the absorbance at 490 nm using a plate reader (Victor2; PerkinElmer, Shelton, CT, USA).

[9] = target: T1, FLT3; parameters: method as in PMID 20550212, PMID 23172777, PMID 24665000; conditions: previously reported leads 1, 2, 3; cited from earlier work
[10] = system: RS4-11 cells; assay: Anti-proliferative activity, RS4-11; format: cell-based; conditions: Homo sapiens, RS4-11; ALL-wt-FLT3 (homozygous); supplement values ± SEM; read-out: RS4-11 EC50
[11] = system: H1975 cells; assay: Anti-proliferative activity, H1975; format: cell-based; conditions: Homo sapiens, NCI-H1975; NSCLC-EGFR LR/TM; supplement values ± SEM; read-out: H1975 EC50
[12] = system: Mia-PaCa2 cells; assay: Anti-proliferative activity, Mia-PaCa2; format: cell-based, human; conditions: Homo sapiens, MIA PaCa-2, Human Pancreatic Cancer; supplement values ± SEM
[13] = system: HCT-116 cells; assay: Anti-proliferative activity, HCT-116; format: cell-based, human; conditions: HCT-116; Human Colon Cancer; supplement values ± SEM; read-out: HCT-116 EC50
[14] = system: H2228 cells; assay: Anti-proliferative activity, H2228; format: cell-based; conditions: Homo sapiens, NCI-H2228; NSCLC-ALK; supplement values ± SEM; read-out: H2228 EC50
[15] = system: CL-97 cells; assay: Anti-proliferative activity, CL-97; format: cell-based, human; conditions: CL97; Human Lung Cancer; supplement values ± SEM; read-out: CL-97 EC50

| SMILES | EC50 ([2]; Homo sapiens, MOLM-13, 72 h) | IC50 [3] | EC50 ([4]; Homo sapiens, MV4-11, 72 h) | inhibition at 0.5 µM [5] | IC50 [7] | EC50 [8] | further results |
| --- | --- | --- | --- | --- | --- | --- | --- |
| CO[C@@H]1[C@H](N(C)C(=O)c2ccccc2)C[C@H]2O[C@]1(C)n1c3ccccc3c3c4c(c5c6ccccc6n2c5c31)C(=O)NC4 [PKC412] | – | – | – | – | – | – | EC50 [1]: 687 nM |
| COc1cc2ncnc(NCCc3cnc(NC(=O)Nc4cccc(Cl)c4)s3)c2cc1OC [Compound 4] | ~40 nM | 127 nM | ~40 nM | 100% | 5 nM and 4.9 nM | 9100 nM | EC50 [2]: 20 nM; EC50 [4]: 43 nM; solubility [6]: 0.452 µg/mL (≈ 0.932 µM) |
| CN(C)CCOc1ccc2c(NCCc3cnc(NC(=O)Nc4cccc(Cl)c4)s3)ncnc2c1 [Compound 9] | 40 nM | 58 nM | 57 nM | 90.1% | 17 nM | 3400 nM | – |
| COc1cccc(NC(=O)Nc2ncc(CCNc3ncnc4cc(OCCCN(C)C)ccc34)s2)c1 [Compound 12] | 12.4 nM | 98 nM | 10.9 nM | 90% | 19 nM | 9800 nM | – |
| O=C(Nc1ccccc1)Nc1ccc(CCNc2ncnc3oc(-c4ccccc4)c(-c4ccccc4)c23)cc1 [Compound 1] | – | – | – | – | – | – | IC50 [9]: > 10000 nM |
| COc1ccc(Cl)cc1NC(=O)Nc1ncc(CCNc2ncnc3cc(OCCCN(C)C)ccc23)s1 [Compound 13] | 6.7 nM | 16 nM | 2.1 nM | 48.6% | 464 nM | 5300 nM | selectivity for FLT3 over AURKA [3]: 30 fold |
| COCCOc1ccc2ncnc(NCCc3cnc(NC(=O)Nc4cccc(Cl)c4)s3)c2c1 [Compound 7] | 412 nM | 1290 nM | 342 nM | 42% | 10 nM | 8000 nM | selectivity for AURKA over FLT3 [7]: 100 fold |
| COCCOc1cc2ncnc(NCCc3cnc(NC(=O)Nc4cccc(Cl)c4)s3)c2cc1OCCOC [Compound 6] | 90 nM | 98 nM | 102 nM | 70.4% | 6 nM | 3500 nM | – |
| CNC(=O)c1cc(Oc2ccc(NC(=O)Nc3ccc(Cl)c(C(F)(F)F)c3)cc2)ccn1 [Sorafenib] | – | – | – | – | – | – | EC50 [10]: 9300 nM; EC50 [11]: 7010 nM; EC50 [12]: 7790 nM; EC50 [13]: 8800 nM; EC50 [14]: 7970 nM; EC50 [15]: 7050 nM |
| Cc1ccc(Cl)cc1NC(=O)Nc1ncc(CCNc2ncnc3cc(OCCCN(C)C)ccc23)s1 [Compound 14] | 12.7 nM | 20.5 nM | 3.3 nM | 63% | 131 nM | 3800 nM | selectivity for FLT3 over AURKA [3]: ~8 fold |
| CN(C)CCCOc1ccc2c(NCCc3cnc(NC(=O)Nc4ccccc4)s3)ncnc2c1 [Compound 11] | 8 nM | 94 nM | 21.4 nM | 75.8% | – | 10900 nM | – |
| O=C(Nc1cccc(Cl)c1)Nc1ncc(CCNc2ncnc3ccccc23)s1 [Compound 5] | 69 nM | 1410 nM | 65 nM | 92% | 15 nM | 6600 nM | selectivity for AURKA over FLT3 [7]: 100 fold |
| COCCOc1ccc2c(NCCc3cnc(NC(=O)Nc4cccc(Cl)c4)s3)ncnc2c1 [Compound 8] | 8 nM | 103 nM | 9.5 nM | 85.9% | 11 nM | 2900 nM | solubility [6]: 0.107 µg/mL (≈ 0.214 µM) |
